Source: patent publication US9732063B2, “Kinase inhibitors” (RESPIVERT LIMITED, priority 2012, dated 2017)
Like-named read-outs stand apart in the source and are kept apart here.

How the values were obtained:
PBMCs [1] = test: IL-2 and IFN gamma release in CD3/CD28 stimulated PBMC cells; format: cell-based; conditions: Homo sapiens
Outline: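 They were cultured with compound for 3 days. IL-2 and IFN-γ in supernatants were quantified by sandwich ELISA, and IC50 was derived from the dose-response curve.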

HT29 cells = test: IL-1β-induced IL-8 release in HT29 cells; format: cell-based; conditions: Homo sapiens
Description: HT29 cells, a human colon adenocarcinoma cell line, are plated in a 96 well plate (24 hrs) and pre-treated with compounds at the desired concentration for 2 hours before addition of 5 ng/mL of IL-1β (Abcam) for 24 hours. Supernatants are harvested for IL-8 quantification by Sandwich ELISA (Duo-set, R&D System). The IC50 is determined from the dose response curve.

GSK3α = GSK3α (Homo sapiens (Human), UniProt P49840); test: GSK 3α enzyme inhibition (Z-LYTE FRET, Method 2); format: biochemical
Chain of GSK3α (P49840 whole entry): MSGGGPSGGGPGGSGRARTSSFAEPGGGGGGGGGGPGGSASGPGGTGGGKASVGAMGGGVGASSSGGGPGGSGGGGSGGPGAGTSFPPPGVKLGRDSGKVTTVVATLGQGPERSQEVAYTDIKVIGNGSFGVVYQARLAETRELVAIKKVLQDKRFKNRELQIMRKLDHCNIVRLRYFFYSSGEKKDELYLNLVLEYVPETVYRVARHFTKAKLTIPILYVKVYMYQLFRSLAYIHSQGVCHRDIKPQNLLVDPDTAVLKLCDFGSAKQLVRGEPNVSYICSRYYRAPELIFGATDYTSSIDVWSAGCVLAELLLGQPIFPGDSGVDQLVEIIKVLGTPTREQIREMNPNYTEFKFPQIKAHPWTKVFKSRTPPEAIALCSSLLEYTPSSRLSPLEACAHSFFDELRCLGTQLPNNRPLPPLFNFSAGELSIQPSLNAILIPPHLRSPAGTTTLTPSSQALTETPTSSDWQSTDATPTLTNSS
Outline: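 Z-LYTE FRET: GSK3α preincubated with compound 2 h at RT, then FRET peptide and ATP added (stocks 8 μM and 40 μM) for 1 h, followed by 1 h protease development. Compound stocks 4–0.004 μg/mL; phosphorylation from coumarin/fluorescein emission ratio.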

p38 MAPKα = p38 MAPKα (Homo sapiens (Human), UniProt Q16539); test: p38 MAPKα enzyme inhibition (Z-LYTE FRET, Method 2); format: biochemical
Chain of p38 MAPKα (Q16539 whole entry): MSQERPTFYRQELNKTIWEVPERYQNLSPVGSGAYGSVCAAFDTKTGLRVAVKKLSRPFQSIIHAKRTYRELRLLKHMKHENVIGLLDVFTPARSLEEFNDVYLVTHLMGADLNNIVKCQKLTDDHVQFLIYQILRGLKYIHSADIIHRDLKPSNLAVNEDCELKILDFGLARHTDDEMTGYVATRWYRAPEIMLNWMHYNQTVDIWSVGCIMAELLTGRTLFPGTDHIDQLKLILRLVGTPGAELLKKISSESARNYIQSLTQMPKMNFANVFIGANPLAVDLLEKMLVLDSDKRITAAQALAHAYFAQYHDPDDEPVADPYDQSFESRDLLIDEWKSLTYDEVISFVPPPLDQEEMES

PBMCs [2] = test: LPS-induced TNFα/IL-8 release in PBMC cells; format: cell-based; conditions: Homo sapiens, read-out: IC50 Values for Inhibition of Cytokine Release PBMCs IL-8
Outline: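 Healthy-donor PBMCs, isolated by density gradient, were pretreated with compound for 2 h and then stimulated with 1 ng/mL E. coli O111:B4 LPS for 24 h at 37 °C, 5% CO2. Supernatant IL-8 and TNFα were quantified by sandwich ELISA.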

d-U937 cells = test: LPS-induced TNFα/IL-8 release in d-U937 cells; format: cell-based; conditions: Homo sapiens
Description: Cells are pre-incubated with final concentrations of test compound for 2 hr and are then stimulated with 0.1 μg/mL of LPS (from E. coli: O111:B4, Sigma) for 4 hr. The supernatant is collected for determination of TNFα and IL-8 concentrations by sandwich ELISA (Duo-set, R&D systems). […] The relative 50% effective concentration (REC50) is determined from the resultant concentration-response curve. The inhibition of IL-8 production is calculated at each concentration of test compound by comparison with vehicle control.

Syk = Syk (Homo sapiens (Human), UniProt P43405); test: Syk enzyme inhibition (Z-LYTE FRET); format: biochemical
Outline: (§1)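 Kinase activity is measured on a dual-labelled synthetic peptide by FRET. ATP is supplied as an 800 μM solution for c-Src and a 60 μM solution for Syk. Compound is tested at four added concentrations, 4 to 0.004 μg/mL.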

c-Src = c-Src (Homo sapiens (Human), UniProt P12931); test: c-Src enzyme inhibition (Z-LYTE FRET); format: biochemical
Chain of c-Src (P12931 whole entry, looked up): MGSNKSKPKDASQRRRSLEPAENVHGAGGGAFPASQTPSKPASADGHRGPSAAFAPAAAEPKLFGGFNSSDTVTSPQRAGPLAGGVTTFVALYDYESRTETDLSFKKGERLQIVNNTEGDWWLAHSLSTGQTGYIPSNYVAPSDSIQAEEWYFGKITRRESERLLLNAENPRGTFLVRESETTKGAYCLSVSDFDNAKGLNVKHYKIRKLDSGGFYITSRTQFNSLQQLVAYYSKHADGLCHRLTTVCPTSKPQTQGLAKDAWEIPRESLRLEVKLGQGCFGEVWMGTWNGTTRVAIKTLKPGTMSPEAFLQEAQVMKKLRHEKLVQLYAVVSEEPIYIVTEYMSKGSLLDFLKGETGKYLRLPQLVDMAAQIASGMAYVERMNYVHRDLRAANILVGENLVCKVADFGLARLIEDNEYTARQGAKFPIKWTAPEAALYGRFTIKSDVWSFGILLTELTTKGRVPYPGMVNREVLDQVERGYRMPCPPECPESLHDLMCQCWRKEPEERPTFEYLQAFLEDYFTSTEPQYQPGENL
Outline: as §1

TNBS-induced colitis = conditions: for LP inflammation / Ulcer grade: oral gavage BID, conducted over 2 days, mice; for inflammatory cell infiltrate in the reticular and laminar propria zone / ulcer grade and epithelial repair compared to the vehicle control: dosed orally at either 1 or 5 mg/kg
Description: On Day 0 of the study TNBS (200 μL) is administered intra-colonically via a plastic catheter followed by BID dosing of the vehicle, reference or test compound for 2 or 4 days. During the study animals are weighed every day and stool observations are made and recorded as a score, based on stool consistency. At the time of sacrifice on Day 2 (or Day 4) the large intestine is removed and the length and weight recorded. Sections of the colon are taken for either MPO analysis to determine neutrophil infiltration or for histopathology involving scoring to determine disease severity.

[3] = tested on: intestinal mucosa biopsies from the inflamed regions of the colon; test: Human biopsy assay (intestinal mucosa biopsies of ulcerative colitis patients); format: cell-based; conditions: 24 hours; for cytokine (IL-1β, IL-6 and IL-8) release compared to the DMSO control: biopsies from ulcerative colitis patients; for IL-1β release / IL-6 release / IL-8 release: 1 μg/ml, biopsies of UC patients, DMSO control = 100%
Description: Intestinal mucosa biopsies are obtained from the inflamed regions of the colon of IBD patients. […] DMSO control or test compounds at the desired concentration are added to the tissue and incubated for 24 hr in the organ culture chamber. The supernatant is harvested for determination of IL-6, IL-8, IL-1β and TNFα levels by R&D ELISA.

[4] = read-out: IC50 Values for Inhibition of Cytokine Release PBMCs IL-2
[5] = HT-29, read-out: IC50 Values for Inhibition of Cytokine Release HT29 cells IL-8
[6] = dU937, read-out: IC50 Values for Inhibition of Cytokine Release dU937 cells IL-8
[7] = dU937, read-out: IC50 Values for Inhibition of Cytokine Release dU937 cells TNFα
[8] = read-out: IC50 Values for Inhibition of Cytokine Release PBMCs IFNγ

| Compound | IC50 (GSK3α) [nM] | IC50 (p38 MAPKα) [nM] | IC50 (Syk) [nM] | IC50 (c-Src) [nM] | IC50 (PBMCs [1]; [4]) [nM] | IC50 (HT29 cells; [5]) [nM] | IC50 (PBMCs [2]) [nM] | IC50 (d-U937 cells; [6]) [nM] | IC50 (d-U937 cells; [7]) [nM] | IC50 (PBMCs [1]; [8]) [nM] | other results |
| --- | --- | --- | --- | --- | --- | --- | --- | --- | --- | --- | --- |
| C#Cc1cccc(Nc2nccc(Oc3ccc(NC(=O)Nc4cc(C(C)(C)C)nn4-c4ccc(OC)nc4)c4ccccc34)n2)c1 [Example 1, 1-(3-(tert-Butyl)-1-(6-methoxypyridin-3-yl)-1H-pyrazol-5-yl)-3-(4-((2-((3-ethynylphenyl)-amino)pyrimidin-4-yl)oxy)naphthalen-1-yl)urea] | > 10000 | 316 | 77 | 28 |  |  |  |  |  |  | IC50 (PBMCs [1]; CD3/CD28 stimulated PBMCs, read-out: IC50 Values for Inhibition of Cytokine Release PBMCs IL-2): 39.8 nM; IC50 (HT29 cells; HT-29, IL-1β-stimulated HT29 cells, read-out: IC50 Values for Inhibition of Cytokine Release HT29 cells IL-8): 17.4 nM; IC50 (PBMCs [2]; LPS-stimulated PBMCs): 11.5 nM; IC50 (d-U937 cells; dU937, LPS-stimulated d-U937 cells, method describes REC50 relative to BIRB796, read-out: IC50 Values for Inhibition of Cytokine Release dU937 cells TNFα): 3.6 nM; IC50 (d-U937 cells; dU937, LPS-stimulated d-U937 cells, read-out: IC50 Values for Inhibition of Cytokine Release dU937 cells IL-8): 2.1 nM |
| COc1ccc(-n2nc(C(C)(C)C)cc2NC(=O)Nc2ccc(Oc3ccnc(Nc4cccc(N=S(C)(C)=O)c4)n3)c3ccccc23)cn1 [Example 2] | 1850 | 81 | 15 | 8 | 51.1 | 18.5 | 5.3 | 5.2 | 16.5 |  |  |
| COCCOCCOCCOc1cccc(Nc2nccc(Oc3ccc(NC(=O)Nc4cc(C(C)C)nn4-c4ccc(C)cc4)c4ccccc34)n2)c1 [Example 9, 1-(3-Isopropyl-1-(P-tolyl)-1H-pyrazol-5-yl)-3-(4-((2-((3-(2-(2-(2-methoxyethoxy)ethoxy)-ethoxy)phenyl)amino)pyrimidin-4-yl)oxy)naphthalen-1-yl)urea] | 3720 | 26 | > 1000 | 154 |  | 4.5 | 3.1 | 2.8 | 1.5 |  |  |
| Cc1ccc(-n2nc(C(C)C)cc2NC(=O)Nc2ccc(Oc3ccnc(Nc4cccc(OS(C)(=O)=O)c4)n3)c3ccccc23)cc1 [Example 11, 3-(4-((4-(3-(3-Isopropyl-1-(p-tolyl)-1H-pyrazol-5-yl)ureido)naphthalen-1-yl)oxy)pyrimidin-2-yl)amino)phenyl methanesulfonate] | 8650 | 50 | > 622 | 20 | 151 | 5.3 | 3.6 | 1.4 | 0.9 |  |  |
| COCCOCCOCCOc1cc(Nc2nccc(Oc3ccc(NC(=O)Nc4cc(C(C)C)nn4-c4ccc(C)cc4)c4ccccc34)n2)cc(OC)c1 [Example 13, 1-(3-Isopropyl-1-(p-tolyl)-1H-pyrazol-5-yl)-3-(4-((2-((3-methoxy-5-(2-(2-(2-methoxy-ethoxy)ethoxy)ethoxy)phenyl)amino)pyrimidin-4-yl)oxy)naphthalen-1-yl)urea] | > 8920 | 65 |  | 10 | 19.2 | 4.7 | 2.5 | 1.4 | 4.4 | 3 | LP inflammation (TNBS-induced colitis; 1 mg/kg): 2.1 ± 0.3; Ulcer grade (TNBS-induced colitis; 1 mg/kg): 2.5 ± 0.4; LP inflammation (TNBS-induced colitis; 5 mg/kg): 2.6 ± 0.3; Ulcer grade (TNBS-induced colitis; 5 mg/kg): 3.1 ± 0.3; inflammatory cell infiltrate in the reticular and laminar propria zone (TNBS-induced colitis): marked reduction; ulcer grade and epithelial repair compared to the vehicle control (TNBS-induced colitis): marked improvements; cytokine (IL-1β, IL-6 and IL-8) release compared to the DMSO control ([3]; 0.1 μg/mL (data not shown)): significantly inhibited; cytokine (IL-1β, IL-6 and IL-8) release compared to the DMSO control ([3]; 1 μg/mL): significantly inhibited; IL-1β release [3]: 10 ± 13%; IL-6 release [3]: 32 ± 64%; IL-8 release [3]: 3 ± 4% |
| COCCOCCOCCOc1cc(Nc2nccc(Oc3ccc(NC(=O)Nc4cc(C(C)(C)C)nn4-c4ccc(C)cc4)c4ccccc34)n2)cc(OC)c1 [Example 37, 1-(3-(tert-Butyl)-1-(p-tolyl)-1H-pyrazol-5-yl)-3-(4-((2-((3-methoxy-5-(2-(2-(2-methoxy-ethoxy)ethoxy)ethoxy)phenyl)amino)pyrimidin-4-yl)oxy)naphthalen-1-yl)urea] | 6360 | 153 | 36 | 11 | 34.8 | 1.7 | 1.8 | 1.7 |  | 1.5 |  |
| COCCOCCOCCOc1cc(Nc2nccc(Oc3ccc(NC(=O)Nc4cc(C(C)(C)C)nn4-c4ccc(OC)nc4)c4ccccc34)n2)cc(OC)c1 [Example 38, 1-(3-(tert-Butyl)-1-(6-methoxypyridin-3-yl)-1H-pyrazol-5-yl)-3-(4-((2-((3-methoxy-5-(2-(2-(2-methoxyethoxyl)ethoxy)ethoxy)phenyl)amino)pyrimidin-4-yl)oxy)naphthalen-1-yl)urea] | 5440 | 132 | 25 | 10 | 40.9 | 1.8 | 1.5 | 1 |  | 1.3 |  |
| COc1cc(Nc2nccc(Oc3ccc(NC(=O)Nc4cc(C(C)(C)C)nn4-c4ccc(C)cc4)c4ccccc34)n2)cc(S(=O)(=O)C2CC2)c1 [Example 47, 1-(3-(tert-Butyl)-1-(p-tolyl)-1H-pyrazol-5-yl)-3-(4-((2-((3-(cyclopropylsulfonyl)-5-methoxy-phenyl)amino)pyrimidin-4-yl)oxy)naphthalen-1-yl)urea] | 6830 | 162 |  | 46 | 95.8 | 1.5 | 2.6 | 1.2 | 0.6 | 1.1 | LP inflammation (TNBS-induced colitis; 1 mg/kg): 2.6 ± 0.3; Ulcer grade (TNBS-induced colitis; 1 mg/kg): 3.5 ± 0.4; LP inflammation (TNBS-induced colitis; 5 mg/kg): 2.1 ± 0.3; Ulcer grade (TNBS-induced colitis; 5 mg/kg): 2.8 ± 0.4; inflammatory cell infiltrate in the reticular and laminar propria zone (TNBS-induced colitis): marked reduction; ulcer grade and epithelial repair compared to the vehicle control (TNBS-induced colitis): marked improvements; cytokine (IL-1β, IL-6 and IL-8) release compared to the DMSO control ([3]; 1 μg/mL): significantly inhibited; IL-1β release [3]: 5 ± 6%; IL-6 release [3]: 17 ± 5%; IL-8 release [3]: 26 ± 15% |
| COCCOCCOCCOc1cc(Nc2nccc(Oc3ccc(NC(=O)Nc4cc(C(C)(C)C)nn4-c4ccc(C)cc4)c4ccccc34)n2)cc(OC)n1 [Example 69, 1-(3-(tert-Butyl)-1-(p-tolyl)-1H-pyrazol-5-yl)-3-(4-((2-((2-methoxy-6-(2-(2-(2-methoxyethoxy)ethoxy)ethoxy)pyridin-4-yl)amino)pyrimidin-4-yl)oxy)naphthalen-1-yl)urea] | > 10000 | 172 | 27 | 14 | 50.3 | 3.1 | 1.6 | 0.9 | 1.2 | 1.4 |  |
